{"source": "ChEMBL document CHEMBL4706505", "about": "“F10, a new camptothecin derivative, was identified as a new orally-bioavailable, potent antitumor agent” (Eur J Med Chem, 2020)", "key": {"[1]": {"system": "HeLa", "assay": "Cytotoxicity against human Hela assessed as reduction in cell viability measured after 72 hrs by MTT assay", "type": "functional, cell-based"}, "[2]": {"assay": "Toxicity in Kunming mouse assessed as mortality at 300 mg/kg, po measured once every 30 mins upto 10 days", "type": "organism-based", "details": "in vivo, 0.5 h"}, "[3]": {"system": "HCT-116", "assay": "Antitumor activity against human HCT-116 cells xenografted in nude BALB/c mouse assessed as tumor growth inhibition at 1 mg/kg, ip dosed once the other day for 24 days", "type": "functional", "details": "HCT-116, ip, 576 h, time 24 day, read-out: TGI"}, "[4]": {"assay": "MRT (0 to infinity) in nude BALB/c mouse serum at 8.0 mg/kg incubated up to 9 hrs, po administered via gavage by LC-MS/MS analysis", "type": "ADME, organism-based"}, "[5]": {"assay": "Toxicity in NPG mouse xenografted with human Raji cells assessed as body weight loss at 4 mg/kg, ip measured after 5 day", "type": "organism-based", "details": "in vivo, 120 h"}, "[6]": {"system": "Raji", "assay": "Antitumor activity against NPG mouse xenografted with human Raji cell assessed as tumor growth inhibition at 4 mg/kg, ip measured after 5 day", "type": "functional", "details": "120 h, read-out: TGI"}, "[7]": {"system": "NCI-H1975", "assay": "Cytotoxicity against human NCI-H1975 assessed as reduction in cell viability measured after 72 hrs by MTT assay", "type": "functional, cell-based", "details": "NCI-H1975, 72 h"}}}
{"smiles": "CCc1c2c(nc3ccc(OCC(=O)N4CCCCC4)cc13)-c1cc3c(c(=O)n1C2)COC(=O)[C@]3(O)CC", "values": [{"measurement": "IC50", "setting": "[1]", "result": 125, "unit": "nM"}, {"measurement": "Activity", "setting": "[2]", "result": "Toxic"}, {"measurement": "inhibition in vivo at 1 mg/kg", "setting": "[3]", "result": 90.2, "unit": "%"}, {"measurement": "MRT inf", "setting": "[4]", "result": 1.15, "unit": "h"}, {"measurement": "Activity", "setting": "[5]", "result": 19.2, "unit": "g"}, {"measurement": "inhibition in vivo at 4 mg/kg", "setting": "[6]", "result": 136, "unit": "%"}, {"measurement": "IC50", "setting": "[7]", "result": 84, "unit": "nM"}]}
